PubChem BioAssay (NCI)
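GI50 marks 50% less growth. TGI: total growth inhibition.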

Experiments:
Assay in all cases: DTP human tumour cell line panel, 384-well format
[1] = tested on: SK-MEL-5 melanoma
[2] = tested on: A549 NSCLC
[3] = tested on: SW-620 colon
[4] = tested on: PC-3 prostate
[5] = tested on: SF-295 CNS
[6] = tested on: HL-60(TB) leukemia
[7] = tested on: NCI-H226 lung
[8] = tested on: UACC-62 melanoma
[9] = tested on: HS 578T breast
[10] = tested on: SF-268 CNS
[11] = tested on: RXF 393 renal
[12] = tested on: MALME-3M melanoma
[13] = tested on: MDA-MB-435 melanoma
[14] = tested on: SNB-75 CNS
[15] = tested on: BT-549 breast
[16] = tested on: COLO 205 colon
[17] = tested on: SN12C renal
[18] = tested on: HT29 colon
[19] = tested on: T-47D breast
[20] = tested on: OVCAR-3 ovarian
[21] = tested on: SK-MEL-28 melanoma
[22] = tested on: IGROV1 ovarian
[23] = tested on: SR leukemia
[24] = tested on: OVCAR-8 ovarian
[25] = tested on: TK-10 renal
[26] = tested on: MDA-MB-231 breast
[27] = tested on: UACC-257 melanoma
[28] = tested on: NCI-H322M lung
[29] = tested on: HOP-92 NSCLC

`CCc1cc2ncc(CN3CCN(c4ccc(C(=O)NC)nc4)CC3)cc2[nH]c1=O` was tested, and the TGI [1] was over 100 µM, the GI50 [2] was 52.6 µM and the TGI [2] was over 100 µM. It also gave a GI50 [3] of over 100 µM, a TGI [3] of over 100 µM and a GI50 [4] of over 100 µM. The TGI [4] was over 100 µM, the GI50 [5] was 71 µM and the TGI [5] was over 100 µM. It also gave a GI50 [6] of 36 µM, a TGI [6] of over 100 µM and a GI50 [7] of 53.1 µM. For the same compound, the TGI [7] was over 100 µM, the GI50 [8] was over 100 µM and the TGI [8] was over 100 µM. The GI50 [9] was 18.9 µM, the TGI [9] was over 100 µM and the GI50 [10] was 93.1 µM. It also gave a TGI [10] of over 100 µM, a GI50 [11] of over 100 µM and a TGI [11] of over 100 µM. The GI50 [12] was 71.2 µM, the TGI [12] was over 100 µM and the GI50 [13] was over 100 µM. The TGI [13] was over 100 µM, the GI50 [14] was over 100 µM and the TGI [14] was over 100 µM. The GI50 [15] was 29.7 µM, the TGI [15] was over 100 µM and the GI50 [16] was 68.5 µM. For the same compound, the TGI [16] was over 100 µM, the GI50 [17] was 84 µM and the TGI [17] was over 100 µM. The GI50 [18] was 80.1 µM, the TGI [18] was over 100 µM and the GI50 [19] was 22 µM. It also gave a TGI [19] of over 100 µM, a GI50 [20] of 43.5 µM and a TGI [20] of over 100 µM. For the same compound, the GI50 [21] was over 100 µM, the TGI [21] was over 100 µM and the GI50 [22] was 60.1 µM. For the same compound, the TGI [22] was over 100 µM, the GI50 [23] was 0.271 µM and the TGI [23] was 20.5 µM. The GI50 [24] was 42.1 µM, the TGI [24] was over 100 µM and the GI50 [25] was over 100 µM. It also gave a TGI [25] of over 100 µM, a GI50 [26] of 30.5 µM and a TGI [26] of over 100 µM. For the same compound, the GI50 [27] was over 100 µM, the TGI [27] was over 100 µM and the GI50 [28] was over 100 µM. The TGI [28] was over 100 µM, the GI50 [29] was 25.9 µM and the TGI [29] was over 100 µM.
